How the values were obtained:
[1] = test system: Puccinia recondita f. Sp. Tritici; assay: Puccinia recondita f. sp. tritici / wheat / leaf disc preventative (brown rust); assay type: in vivo; conditions: foliar, 200 ppm in the applied formulation, wheat leaf segments cv. Kanzler, inoculated 1 day after application, vs untreated, 7 to 9 days after application, read-out: disease control
Outline: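 Preventative leaf-segment test on wheat cv. Kanzler: formulated compound diluted in water was sprayed onto segments on agar, with spore inoculation 1 day later. Incubated at 19° C, 75% rh, 12 h light/12 h dark; percent disease control versus untreated scored 7 to 9 days after application.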

[2] = test system: Puccinia recondita f. Sp. Tritici; assay: Puccinia recondita f. sp. tritici / wheat / leaf disc curative (brown rust); assay type: in vivo; conditions: foliar, 200 ppm in the applied formulation, wheat leaf segments cv. Kanzler, compound applied 1 day after inoculation, vs untreated, 6 to 8 days after application, read-out: disease control
Procedure: (§1) Leaf disks or leaf segments of various plant species are cut from plants grown in a greenhouse. The cut leaf disks or segments are placed in multiwell plates (24-well format) onto water agar. The leaf disks are sprayed with a test solution before (preventative) or after (curative) inoculation. Compounds to be tested are prepared as DMSO solutions (max. 10 mg/ml) which are diluted to the appropriate concentration with 0.025% Tween20 just before spraying. The inoculated leaf disks or segments are incubated under defined conditions (temperature, relative humidity, light, etc.) according to the respective test system. A single evaluation of disease level is carried out 3 to 14 days after inoculation, depending on the pathosystem. Percent disease control relative to the untreated check leaf disks or segments is then calculated.
Example 2: Fungicidal Activity Against Puccinia recondita f. sp. tritici/Wheat/Leaf Disc Curative (Brown Rust)
Wheat leaf segments cv. Kanzler are placed on agar in multiwell plates (24-well format). The leaf segments are then inoculated with a spore suspension of the fungus. Plates were stored in darkness at 19° C. and 75% relative humidity. The Formulated test compound diluted in water was applied 1 day after inoculation. The leaf segments were incubated at 19° C. and 75% relative humidity under a light regime of 12 hours light/12 hours darkness in a climate cabinet and the activity of a compound was assessed as percent disease control compared to untreated when an appropriate level of disease damage appears in untreated check leaf segments (6 to 8 days after application).
(§2) The following compounds at 200 ppm in the applied Formulation give at least 80% disease control in this test when compared to untreated control leaf disks under the same conditions, which show extensive disease development.

[3] = test system: Phakopsora pachyrhizi; assay: Phakopsora pachyrhizi / soybean / leaf disc preventative (Asian soybean rust); assay type: in vivo; conditions: foliar, 200 ppm in the applied formulation, soybean leaf disks, inoculated one day after application, vs untreated, 12 to 14 days after application, read-out: disease control
Procedure: as §1
Example 3: Fungicidal Activity Against Phakopsora pachyrhizi/Soybean/Leaf Disc Preventative (Asian Soybean Rust)
Soybean leaf disks are placed on water agar in multiwell plates (24-well format) and sprayed with the Formulated test compound diluted in water. One day after application leaf discs are inoculated by spraying a spore suspension on the lower leaf surface. After an incubation period in a climate cabinet of 24-36 hours in darkness at 20° C. and 75% rh leaf disc are kept at 20° C. with 12 h light/day and 75% rh. The activity of a compound is assessed as percent disease control compared to untreated when an appropriate level of disease damage appears in untreated check leaf disks (12 to 14 days after application).
as §2

[4] = test system: Glomerella lacenarium (Colletotrichum lacenarium); assay: Glomerella lacenarium (Colletotrichum lacenarium) liquid culture / cucumber / preventative (anthracnose); assay type: cell-based; conditions: 20 ppm, liquid culture in PDB, 24° C., inhibition of growth measured photometrically 3 to 4 days after application, vs untreated, read-out: disease control
Outline: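 Cryopreserved conidia in potato dextrose broth were added to test compound in a 96-well microtiter plate and incubated at 24 °C. Growth inhibition read photometrically 3–4 days after application, as percent activity versus untreated check.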

O=C(CSc1ccccc1)Nc1ccc(-c2noc(C(F)(F)F)n2)nc1 [Compound 1.55, 2-phenylsulfanyl-N-[6-[5-(trifluoromethyl)-1,2,4-oxadiazol-3-yl]-3-pyridyl]acetamide]
≥ 80%: pest or weed control at 200 ppm [1] | pest or weed control at 200 ppm [2] | pest or weed control at 200 ppm [3] | inhibition of growth at 20 ppm [4]

COC(=O)C(C)(C)CC(=O)Nc1ccc(-c2noc(C(F)(F)F)n2)cc1 [Compound 1.73, methyl 2,2-dimethyl-4-oxo-4-[4-[5-(trifluoromethyl)-1,2,4-oxadiazol-3-yl]anilino]butanoate]
≥ 80%: pest or weed control at 200 ppm [1] | pest or weed control at 200 ppm [2] | pest or weed control at 200 ppm [3] | inhibition of growth at 20 ppm [4]

CC(C)C(=O)Nc1ccc(-c2noc(C(F)(F)F)n2)cc1 [Compound 1.74, 2-methyl-N-[4-[5-(trifluoromethyl)-1,2,4-oxadiazol-3-yl]phenyl] propanamide]
≥ 80%: pest or weed control at 200 ppm [1] | pest or weed control at 200 ppm [2] | pest or weed control at 200 ppm [3] | inhibition of growth at 20 ppm [4]

CCC(C)C(=O)Nc1ccc(-c2noc(C(F)(F)F)n2)cc1 (stereo not drawn) [Compound 1.99, 2-methyl-N-[4-[5-(trifluoromethyl)-1,2,4-oxadiazol-3-yl]phenyl]butanamide]
≥ 80%: pest or weed control at 200 ppm [1] | pest or weed control at 200 ppm [2] | pest or weed control at 200 ppm [3] | inhibition of growth at 20 ppm [4]

CC1(C(=O)Nc2ccc(-c3noc(C(F)(F)F)n3)cc2)COC1 [Compound 1.102, 3-methyl-N-[4-[5-(trifluoromethyl)-1,2,4-oxadiazol-3-yl]phenyl]oxetane-3-carboxamide]
≥ 80%: pest or weed control at 200 ppm [1] | pest or weed control at 200 ppm [2] | pest or weed control at 200 ppm [3] | inhibition of growth at 20 ppm [4]

O=C(Nc1ccc(-c2noc(C(F)(F)F)n2)cc1)C1CC1F (stereo not drawn) [Compound 1.111, 2-fluoro-N-[4-[5-(trifluoromethyl)-1,2,4-oxadiazol-3-yl]phenyl]cyclo-propanecarboxamide]
≥ 80%: pest or weed control at 200 ppm [1] | pest or weed control at 200 ppm [2] | pest or weed control at 200 ppm [3] | inhibition of growth at 20 ppm [4]

COC(C)C(=O)Nc1ccc(-c2noc(C(F)(F)F)n2)cc1 (stereo not drawn) [Compound 1.112, 2-methoxy-N-[4-[5-(trifluoromethyl)-1,2,4-oxadiazol-3-yl]phenyl] propanamide]
≥ 80%: pest or weed control at 200 ppm [1] | pest or weed control at 200 ppm [2] | pest or weed control at 200 ppm [3] | inhibition of growth at 20 ppm [4]

O=C(Nc1ccc(-c2noc(C(F)(F)F)n2)cc1)C1(F)CC1 [Compound 1.123, 1-fluoro-N-[4-[5-(trifluoromethyl)-1,2,4-oxadiazol-3-yl]phenyl]cyclo-propanecarboxamide]
≥ 80%: pest or weed control at 200 ppm [1] | pest or weed control at 200 ppm [2] | pest or weed control at 200 ppm [3] | inhibition of growth at 20 ppm [4]

CN(C(=O)C1CC1)c1ccc(-c2noc(C(F)(F)F)n2)cc1 [Compound 1.128, N-methyl-N-[4-[5-(trifluoromethyl)-1,2,4-oxadiazol-3-yl]phenyl]cyclo-propanecarboxamide]
≥ 80%: pest or weed control at 200 ppm [1] | pest or weed control at 200 ppm [2] | pest or weed control at 200 ppm [3] | inhibition of growth at 20 ppm [4]

CN(C(=O)C1CCOC1)c1ccc(-c2noc(C(F)(F)F)n2)cc1 (stereo not drawn) [Compound 1.135, N-methyl-N-[4-[5-(trifluoromethyl)-1,2,4-oxadiazol-3-yl]phenyl] tetrahydrofuran-3-carboxamide]
≥ 80%: pest or weed control at 200 ppm [2] | pest or weed control at 200 ppm [3] | inhibition of growth at 20 ppm [4]

COCCC(=O)N(C)c1ccc(-c2noc(C(F)(F)F)n2)cc1 [Compound 1.136, 3-methoxy-N-methyl-N-[4-[5-(trifluoromethyl)-1,2,4-oxadiazol-3-yl]phenyl] propanamide]
≥ 80%: pest or weed control at 200 ppm [2] | pest or weed control at 200 ppm [3] | inhibition of growth at 20 ppm [4]

CN(C(=O)C1(C)COC1)c1ccc(-c2noc(C(F)(F)F)n2)cc1 [Compound 1.139, N,3-dimethyl-N-[4-[5-(trifluoromethyl)-1,2,4-oxadiazol-3-yl]phenyl]oxetane-3-carboxamide]
≥ 80%: pest or weed control at 200 ppm [1] | pest or weed control at 200 ppm [2] | pest or weed control at 200 ppm [3] | inhibition of growth at 20 ppm [4]

COCCCC(=O)N(C)c1ccc(-c2noc(C(F)(F)F)n2)cc1 [Compound 1.140, 4-methoxy-N-methyl-N-[4-[5-(trifluoromethyl)-1,2,4-oxadiazol-3-yl]phenyl]butanamide]
≥ 80%: pest or weed control at 200 ppm [2] | pest or weed control at 200 ppm [3] | inhibition of growth at 20 ppm [4]

CN(C(=O)C1CCCO1)c1ccc(-c2noc(C(F)(F)F)n2)cc1 (stereo not drawn) [Compound 1.141, N-methyl-N-[4-[5-(trifluoromethyl)-1,2,4-oxadiazol-3-yl]phenyl] tetrahydrofuran-2-carboxamide]
≥ 80%: pest or weed control at 200 ppm [1] | pest or weed control at 200 ppm [2] | pest or weed control at 200 ppm [3] | inhibition of growth at 20 ppm [4]

CN(C(=O)C1(C#N)CC1)c1ccc(-c2noc(C(F)(F)F)n2)cc1 [Compound 1.142, 1-cyano-N-methyl-N-[4-[5-(trifluoromethyl)-1,2,4-oxadiazol-3-yl]phenyl]cyclo-propanecarboxamide]
≥ 80%: pest or weed control at 200 ppm [1] | pest or weed control at 200 ppm [2] | pest or weed control at 200 ppm [3] | inhibition of growth at 20 ppm [4]

COC(C)C(=O)N(C)c1ccc(-c2noc(C(F)(F)F)n2)cc1 (stereo not drawn) [Compound 1.143, 2-methoxy-N-methyl-N-[4-[5-(trifluoromethyl)-1,2,4-oxadiazol-3-yl]phenyl] propanamide]
≥ 80%: pest or weed control at 200 ppm [1] | pest or weed control at 200 ppm [2] | pest or weed control at 200 ppm [3] | inhibition of growth at 20 ppm [4]

C#CCCC(=O)Nc1ccc(-c2noc(C(F)(F)F)n2)cc1 [Compound 2.4, N-[4-[5-(trifluoromethyl)-1,2,4-oxadiazol-3-yl]phenyi]pent-4-ynamide]
≥ 80%: pest or weed control at 200 ppm [1] | pest or weed control at 200 ppm [2] | pest or weed control at 200 ppm [3] | inhibition of growth at 20 ppm [4]

CCCC(=O)Nc1ccc(-c2noc(C(F)(F)F)n2)cc1 [Compound 2.5, N-[4-[5-(trifluoromethyl)-1,2,4-oxadiazol-3-yl]phenyl] butanamide]
≥ 80%: pest or weed control at 200 ppm [1] | pest or weed control at 200 ppm [2] | pest or weed control at 200 ppm [3] | inhibition of growth at 20 ppm [4]

O=C(Nc1ccc(-c2noc(C(F)(F)F)n2)cc1)C1CC=CC1 [Compound 2.7, N-[4-[5-(trifluoromethyl)-1,2,4-oxadiazol-3-yl]phenyl]cyclopent-3-ene-1-carboxamide]
≥ 80%: pest or weed control at 200 ppm [1] | pest or weed control at 200 ppm [2] | pest or weed control at 200 ppm [3] | inhibition of growth at 20 ppm [4]

N#CCC(=O)Nc1ccc(-c2noc(C(F)(F)F)n2)cc1 [Compound 2.13, 2-cyano-N-[4-[5-(trifluoromethyl)-1,2,4-oxadiazol-3-yl]phenyl] acetamide]
≥ 80%: pest or weed control at 200 ppm [1] | pest or weed control at 200 ppm [2] | pest or weed control at 200 ppm [3] | inhibition of growth at 20 ppm [4]

COCCCC(=O)Nc1ccc(-c2noc(C(F)(F)F)n2)cc1 [Compound 2.16, 4-methoxy-N-[4-[5-(trifluoromethyl)-1,2,4-oxadiazol-3-yl]phenyl] butanamide]
≥ 80%: pest or weed control at 200 ppm [1] | pest or weed control at 200 ppm [2] | pest or weed control at 200 ppm [3] | inhibition of growth at 20 ppm [4]

CON(C(=O)C1CC1)c1ccc(-c2noc(C(F)(F)F)n2)cc1 [Compound 2.27, N-methoxy-N-[4-[5-(trifluoromethyl)-1,2,4-oxadiazol-3-yl]phenyl] cyclopropane-carboxamide]
≥ 80%: pest or weed control at 200 ppm [2] | pest or weed control at 200 ppm [3] | inhibition of growth at 20 ppm [4]

Reference: patent US20200022370A1, “MICROBIOCIDAL OXADIAZOLE DERIVATIVES” (SYNGENTA PARTICIPATIONS AG, priority 2016, published 2020)
